# Values of other authors as cited in PMC8624105 (Viruses, 2021).
# Test system: NHERF1 PDZ domains
# Conditions: PDZ/PBM interaction
substance,measurement,value
ACE2: glycosylated integral membrane protein of 805 residues,interaction,shown to interact with NHERF1 PDZ domains
